Measurements reported in PubChem BioAssay (NCI).
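All cell lines were grown in 96-well plates and treated with compound for 48 hours. Abbreviation: GI50, concentration required for 50% inhibition of growth. Definition used: TGI = concentration required for complete inhibition of growth.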 Where a SMILES comes first, the peptide text is derived from it. [ ]: non-standard residue; d: D form. Phe(4-Cl) = N[CH](Cc1ccc(Cl)cc1)C(=O)O

Columns and labels:
Assay in all cases: NCI tumour cell line growth inhibition, 48 h
M14 melanoma = system: M14 melanoma
HCT-15 colon = system: HCT-15 colon
U251 CNS = system: U251 CNS
UACC-257 melanoma = system: UACC-257 melanoma
TK-10 renal = system: TK-10 renal
HCT-116 colon = system: HCT-116 colon
786-0 renal = system: 786-0 renal
UACC-62 melanoma = system: UACC-62 melanoma
KM12 colon = system: KM12 colon
HL-60(TB) leukemia = system: HL-60(TB) leukemia

Row | Compound | GI50 (M14 melanoma) | TGI (M14 melanoma) | GI50 (HCT-15 colon) | TGI (HCT-15 colon) | GI50 (U251 CNS) | TGI (U251 CNS) | GI50 (UACC-257 melanoma) | TGI (UACC-257 melanoma) | GI50 (TK-10 renal) | TGI (TK-10 renal) | GI50 (HCT-116 colon) | TGI (HCT-116 colon) | GI50 (786-0 renal) | TGI (786-0 renal) | GI50 (UACC-62 melanoma) | TGI (UACC-62 melanoma) | GI50 (KM12 colon) | TGI (KM12 colon) | TGI (HL-60(TB) leukemia) | GI50 (HL-60(TB) leukemia)
1 | CCN1C(=O)CNc2ncc(-c3ccc(-c4ncn[nH]4)nc3C)nc21 | 0.0917 µM | 2.79 µM | 0.202 µM | 10.9 µM | 0.289 µM | 9.64 µM | 0.184 µM | 2.11 µM | 0.0833 µM | 1.36 µM | 0.277 µM | 4.62 µM | 0.117 µM | 4.35 µM | 0.0777 µM | 0.587 µM | 0.193 µM | 11.3 µM | – | –
2 | CC(O)C(NC(=O)C(Cc1ccccc1)NC(=O)C(NC(=O)C(CCCCN)NC(=O)C(Cc1c[nH]c2ccccc12)NC(=O)C(Cc1ccc(O)cc1)NC(=O)C(Cc1ccc(Cl)cc1)NC(=O)C(N)Cc1ccccc1)C(C)O)C(N)=O (configuration not stated) (H-F[Phe(4-Cl)]YWKTFT-NH2; configuration not given here) | – | 47.1 µM | – | 41.5 µM | – | 35.8 µM | – | – | – | – | – | 49 µM | – | 41.3 µM | – | 39.8 µM | – | 33.5 µM | 28.6 µM | –
3 | CC(C)=CCC/C(=C/CC/C(C)=C/CCc1ccoc1)C(=O)O | – | > 100 µM | – | > 100 µM | – | > 100 µM | – | > 100 µM | – | – | – | > 100 µM | – | > 100 µM | – | > 100 µM | – | > 100 µM | – | –
4 | O=C(Nc1ccc(Cl)cc1)c1cc(-c2ccc(F)cc2)c2sc(=O)[nH]c2n1 | 1.88 µM | 5.13 µM | 1.73 µM | 10.1 µM | 1.5 µM | 4.71 µM | 1.11 µM | 5.07 µM | 1.88 µM | 4.94 µM | 1.43 µM | 2.96 µM | 1.35 µM | 2.85 µM | 0.366 µM | 2.32 µM | 1.81 µM | 6.04 µM | – | –
5 | O=C(CCl)Nc1ccc(Cl)cc1 | 4.45 µM | 17 µM | 2.27 µM | 6.33 µM | 2.22 µM | 5.26 µM | 10.4 µM | 27.1 µM | 2.3 µM | 5.75 µM | 2.7 µM | 10.2 µM | 4.64 µM | 19.5 µM | 3.6 µM | 17 µM | 8.06 µM | 21 µM | – | –
6 | CC(=O)[CH-]C(=O)c1ccccc1.CC(=O)[CH-]C(=O)c1ccccc1.O=C([O-])c1ccc([O-])cc1.O=C([O-])c1ccc([O-])cc1.[Ti+4] | 40.2 µM | > 100 µM | 56.6 µM | > 100 µM | 45 µM | > 100 µM | – | – | – | – | 41.4 µM | > 100 µM | 54.4 µM | > 100 µM | 37.2 µM | > 100 µM | 25 µM | 90.1 µM | 67.6 µM | 20.5 µM
7 | Cc1ccc(/C(=C/C=C(C#N)C#N)Sc2ccc(Cl)cc2)cc1 | 5.44 µM | 17.7 µM | 4.12 µM | 23.1 µM | 3.65 µM | 14.8 µM | 9.04 µM | 22 µM | 2.12 µM | 7.31 µM | 2.24 µM | 3.97 µM | 1.9 µM | 4.57 µM | 5.3 µM | 23.1 µM | 5.5 µM | 26.7 µM | – | –
8 | CCC[CH2][Sn]1([CH2]CCC)[O]C(=O)C(C(C)C)N=Cc2ccccc2[O]1 (configuration not stated) | 0.267 µM | 0.939 µM | 0.345 µM | 1.34 µM | 0.228 µM | 0.636 µM | 0.143 µM | 0.343 µM | 0.272 µM | 0.73 µM | 0.547 µM | 1.78 µM | 0.307 µM | 1.15 µM | 0.244 µM | 0.693 µM | 0.648 µM | 1.98 µM | – | –
9 | NC(CC(=O)OCc1ccccc1)C(=O)OCc1ccccc1 (configuration not stated) | – | > 100 µM | – | > 100 µM | – | – | – | > 100 µM | – | > 100 µM | – | > 100 µM | – | > 100 µM | – | > 100 µM | – | > 100 µM | – | –
10 | CCOC(=O)c1cc(/C(=N\O)c2cc(OC)c(OC)c(OC)c2)n2cc(C)cc(C)c12 | 2.08 µM | 6.45 µM | 2.82 µM | > 100 µM | 2.64 µM | 9.32 µM | – | – | 3.66 µM | 51.3 µM | 1.86 µM | 3.93 µM | 3.01 µM | 10 µM | – | – | 2.31 µM | > 100 µM | 7.57 µM | 2.28 µM
11 | CN(C)c1ccc(N)cc1 | 4.66 µM | 16.3 µM | 6.66 µM | 38.5 µM | 3.36 µM | 13.2 µM | 2.69 µM | 7.28 µM | 3.05 µM | 18.5 µM | 2.67 µM | 8.44 µM | 8.38 µM | 97.5 µM | 4 µM | 16.8 µM | 3.25 µM | 12.2 µM | – | –
12 | CC12CCCC(O)C1CCC1=CC3(CCC12)SCCS3 (configuration not stated) | – | > 10 µM | – | > 10 µM | – | > 10 µM | – | > 10 µM | – | > 10 µM | – | – | – | > 10 µM | – | > 10 µM | – | > 10 µM | – | –
